AC50 data for 34 compounds are collected here from patent US20250171437A1 (Agios Pharmaceuticals,Inc., priority 2022, published 2025).

The assay concerns the target T1, human PAH with the R408W mutation (A375 R408W cells) (Homo sapiens, UniProt P00439, R408W).
T1 construct: expressed in transfected cells
T1 sequence (P00439 1-452 R408W): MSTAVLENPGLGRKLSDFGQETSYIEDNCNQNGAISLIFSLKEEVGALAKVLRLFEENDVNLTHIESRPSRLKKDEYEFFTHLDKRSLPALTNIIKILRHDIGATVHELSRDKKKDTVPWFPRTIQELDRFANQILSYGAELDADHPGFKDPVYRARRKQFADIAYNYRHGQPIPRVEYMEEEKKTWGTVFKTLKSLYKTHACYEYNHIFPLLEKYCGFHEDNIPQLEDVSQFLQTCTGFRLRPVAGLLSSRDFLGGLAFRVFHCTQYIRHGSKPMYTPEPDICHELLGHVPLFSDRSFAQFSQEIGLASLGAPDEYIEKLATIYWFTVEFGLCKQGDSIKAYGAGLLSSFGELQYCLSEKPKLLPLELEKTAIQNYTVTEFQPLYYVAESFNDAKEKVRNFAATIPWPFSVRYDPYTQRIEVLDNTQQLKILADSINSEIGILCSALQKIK
Put plainly: Cell Based Phenylalanine Flux Assay. As to conditions: 24 hrs with compound, then 20 μM sepiapterin and 800 μM 13C9,15N-Phenylalanine for 4 hours, 13C-Tyrosine by LC-MS, average where tested multiple times. In short, it runs like this: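 Stable R408W PAH A375 cells: 24 h compound pretreatment in duplicate, then 4 h with 800 μM isotope-labelled Phe and 20 μM sepiapterin. Labelled Tyr output by LC-MS; AC50 averaged where repeated.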

Where [1] appears, read: A375 cells expressing R408W PAH.

For orientation: AC50 means the concentration at which the activity in the assay is half-maximal. On to `O=C(c1ccnn1C(F)(F)F)N1CCc2[nH]cnc2[C@H]1c1nc2ccc(F)cc2o1` [Example 287, (S)-(4-(6-fluorobenzo[d]oxazol-2-yl)-6,7-dihydro-1H-imidazo[4,5-c]pyridin-5(4H)-yl)(1-(trifluoromethyl)-1H-pyrazol-5-yl)methanone], for which the AC50 (A375 R408W cells) was 0.5 to 1 µM.
In the case of `Cc1ccc2nc(C3c4nc[nH]c4CCN3C(=O)c3cnco3)oc2c1` (stereo not shown), the AC50 under setting [1] was at least 5 µM.
`COc1cccc2nc([C@H]3c4nc[nH]c4CCN3C(=O)c3nc(C(F)(F)F)nn3C)oc12` [Example 698, (R)-(4-(7-methoxybenzo[d]oxazol-2-yl)-6,7-dihydro-1H-imidazo[4,5-c]pyridin-5(4H)-yl)(1-methyl-3-(trifluoromethyl)-1H-1,2,4-triazol-5-yl)methanone]: the AC50 (A375 R408W cells) fell in the range of 1 to 5 µM.
On the same count and under the same terms, to `COc1cccc2oc([C@H]3c4nc[nH]c4CCN3C(=O)c3ccnn3C(F)F)nc12` [Example 604, (R)-(1-(difluoromethyl)-1H-pyrazol-5-yl)(4-(4-methoxybenzo[d]oxazol-2-yl)-6,7-dihydro-1H-imidazo[4,5-c]pyridin-5(4H)-yl)methanone] belongs 1 to 5 µM.
Still for that read-out and setting: the value for `COc1cc(F)c2oc([C@H]3c4nc[nH]c4CCN3C(=O)c3ocnc3C(F)F)nc2c1` [Example 664, (R)-(4-(difluoromethyl)oxazol-5-yl)(4-(7-fluoro-5-methoxybenzo[d]oxazol-2-yl)-6,7-dihydro-1H-imidazo[4,5-c]pyridin-5(4H)-yl)methanone] was at most 0.5 µM.
For `Cn1cc(-c2nnc(C(=O)N3Cc4[nH]cnc4[C@H]3c3nc4ccccc4o3)o2)cn1` [Example 935, (S)-(4-(benzo[d]oxazol-2-yl)-4,6-dihydropyrrolo[3,4-d]imidazol-5(1H)-yl)(5-(1-methyl-1H-pyrazol-4-yl)-1,3,4-oxadiazol-2-yl)methanone], the AC50 (A375 R408W cells) is at least 5 µM.
Still for that read-out and setting: the value for `O=C(c1ocnc1C(F)F)N1CCc2[nH]cnc2[C@@H]1c1nc2cccc(F)c2o1` [Example 900, (R)-(4-(difluoromethyl)oxazol-5-yl)(4-deuterium-4-(7-fluorobenzo[d]oxazol-2-yl)-6,7-dihydro-1H-imidazo[4,5-c]pyridin-5(4H)-yl)methanone] was 0.5 to 1 µM; that for `CN1CCN(c2ccc3c(C(=O)N4CCc5[nH]cnc5[C@H]4c4nc5cccc(F)c5o4)cnn3c2)CC1` [Example 363, (S)-(4-(7-fluorobenzo[d]oxazol-2-yl)-6,7-dihydro-1H-imidazo[4,5-c]pyridin-5(4H)-yl)(6-(4-methylpiperazin-1-yl)pyrazolo[1,5-a]pyridin-3-yl)methanone] was at most 0.5 µM.
Still for that read-out and setting: the value for `CC(O)c1nc(Cl)c(C(=O)N2CCc3[nH]cnc3[C@H]2c2nc3cc(F)ccc3o2)o1` (single isomer, unassigned) [Example 236] was 0.5 to 1 µM.
Consider `O=C(c1cncs1)N1CCc2[nH]cnc2C1c1nc2cc(F)ccc2o1` (stereo not shown), for which the concentration at half-maximal activity (AC50) under setting [1] is at least 5 µM.
For the compound `O=C(c1nnc(-c2ccc(F)cn2)o1)N1CCc2[nH]cnc2[C@H]1c1nc2cc(F)ccc2o1` [Example 33, (S)-(4-(5-fluorobenzo[d]oxazol-2-yl)-6,7-dihydro-1H-imidazo[4,5-c]pyridin-5(4H)-yl)(5-(5-fluoropyridin-2-yl)-1,3,4-oxadiazol-2-yl)methanone], where the note is “A375 R408W cells”, the AC50 was in the range of 0.5 to 1 µM.
For `O=C(Cc1cnn2ccccc12)N1CCc2[nH]cnc2C1c1nc2cc(F)ccc2o1` (stereo not shown), under setting [1], the AC50 was at least 5 µM.
As to `O=C(c1ccnn1C(F)F)N1CCc2[nH]cnc2[C@@H]1c1nc2cc(F)ccc2o1` [Example 94, (R)-(1-(difluoromethyl)-1H-pyrazol-5-yl)(4-(5-fluorobenzo[d]oxazol-2-yl)-6,7-dihydro-1H-imidazo[4,5-c]pyridin-5(4H)-yl)methanone], the AC50 (A375 R408W cells) was 1 to 5 µM.
`O=C(c1ocnc1C(F)F)N1CCc2[nH]cnc2[C@@H]1c1nc2cc(Cl)ccc2o1` [Example 377, (R)-(4-(5-chlorobenzo[d]oxazol-2-yl)-6,7-dihydro-1H-imidazo[4,5-c]pyridin-5(4H)-yl)(4-(difluoromethyl)oxazol-5-yl)methanone]: the AC50 (A375 R408W cells) is 0.5 to 1 µM.
Regarding `COc1ccc(-c2nc(C(F)F)c(C(=O)N3CCc4[nH]cnc4[C@H]3c3nc4cccc(F)c4o3)o2)nc1` [Example 616, (S)-(4-(difluoromethyl)-2-(5-methoxypyridin-2-yl)oxazol-5-yl)(4-(7-fluorobenzo[d]oxazol-2-yl)-6,7-dihydro-1H-imidazo[4,5-c]pyridin-5(4H)-yl)methanone], the AC50 (A375 R408W cells) was at most 0.5 µM.
Take `O=C(c1oc(C2(O)CC2)nc1C(F)F)N1CCc2[nH]cnc2[C@H]1c1nc2ccc(F)cc2o1` [Example 237, (S)-(4-(difluoromethyl)-2-(1-hydroxycyclopropyl)oxazol-5-yl)(4-(6-fluorobenzo[d]oxazol-2-yl)-6,7-dihydro-1H-imidazo[4,5-c]pyridin-5(4H)-yl)methanone]: under “A375 R408W cells”, the AC50 lay in the range of 1 to 5 µM.
As for `CC(F)(F)c1ncoc1C(=O)N1CCc2[nH]cnc2[C@H]1c1nc2cc(F)ccc2o1` [Example 153, (S)-(4-(1,1-difluoroethyl)oxazol-5-yl)(4-(5-fluorobenzo[d]oxazol-2-yl)-6,7-dihydro-1H-imidazo[4,5-c]pyridin-5(4H)-yl)methanone], where the note is “A375 R408W cells”, the AC50 lay within 0.5 to 1 µM.
Take `Cn1cnc(-c2nc(C(F)F)c(C(=O)N3CCc4[nH]cnc4[C@@H]3c3nc4cc(F)ccc4o3)o2)c1` [Example 642, (R)-(4-(difluoromethyl)-2-(1-methyl-1H-imidazol-4-yl)oxazol-5-yl)(4-(5-fluorobenzo[d]oxazol-2-yl)-6,7-dihydro-1H-imidazo[4,5-c]pyridin-5(4H)-yl)methanone]: under “A375 R408W cells”, the AC50 lay in the range of 1 to 5 µM.
For `O=C(c1ccnn1C(F)F)N1CCc2[nH]cnc2[C@H]1c1nc2ccc(F)c(F)c2o1` [Example 513, (S)-(4-(6,7-difluorobenzo[d]oxazol-2-yl)-6,7-dihydro-1H-imidazo[4,5-c]pyridin-5(4H)-yl)(1-(difluoromethyl)-1H-pyrazol-5-yl)methanone], where the note is “A375 R408W cells”, the AC50 lay in the range of 0.5 to 1 µM.
With `O=C(c1oc(-c2ccccn2)nc1C(F)F)N1CCc2[nH]cnc2[C@@H]1c1nc2ccccc2o1` [Example 739, (R)-(4-(benzo[d]oxazol-2-yl)-6,7-dihydro-1H-imidazo[4,5-c]pyridin-5(4H)-yl)(4-(difluoromethyl)-2-(pyridin-2-yl)oxazol-5-yl)methanone], the AC50 (A375 R408W cells) lay within 0.5 to 1 µM.
On to `Cn1ncnc1C(=O)N1CCc2[nH]cnc2C1c1nc2cc(F)ccc2o1` (stereo not shown), for which, under setting [1], the AC50 was 1 to 5 µM.
With `COc1cccc2nc(C3c4nc[nH]c4CCN3C(=O)c3cc(C(C)(C)C)nn3C)oc12` (stereo not shown), the AC50 under setting [1] was at least 5 µM.
In the case of `Cn1nc(Cl)nc1C(=O)N1CCc2[nH]cnc2[C@@H]1c1nc2c(F)cccc2o1` [Example 278, (R)-(3-chloro-1-methyl-1H-1,2,4-triazol-5-yl)(4-(4-fluorobenzo[d]oxazol-2-yl)-6,7-dihydro-1H-imidazo[4,5-c]pyridin-5(4H)-yl)methanone], the AC50 (A375 R408W cells) was in the range of 1 to 5 µM.
With `O=C(c1cnn2cc(CN3CCC(F)(F)C3)ccc12)N1CCc2[nH]cnc2[C@H]1c1nc2cc(F)ccc2o1` (single isomer, unassigned), the AC50 under setting [1] was in the range of 1 to 5 µM.
Take `Cc1nc(C(C)(C)N(C)C)oc1C(=O)N1CCc2[nH]cnc2C1c1nc2cc(F)ccc2o1` (stereo not shown): under setting [1], the AC50 was in the range of 1 to 5 µM.
Consider `Cn1nc(C(F)(F)F)nc1C(=O)N1CCc2[nH]cnc2C1c1nc2ccc(F)cc2o1` (stereo not shown), for which the half-maximal activity concentration (AC50) under setting [1] is at least 5 µM.
On the same count and under the same terms, to `O=C(c1nnc(-c2cn[nH]c2)o1)N1CCc2[nH]cnc2C1c1nc2ccc(F)cc2o1` (stereo not shown) belongs 1 to 5 µM.
As to `O=C(CC1CC1)N1CCc2[nH]cnc2[C@@H]1c1nc2cc(F)ccc2o1` [Example 38, (R)-2-cyclopropyl-1-(4-(5-fluorobenzo[d]oxazol-2-yl)-6,7-dihydro-1H-imidazo[4,5-c]pyridin-5(4H)-yl)ethanone], the AC50 (A375 R408W cells) is 1 to 5 µM.
Still for that read-out and setting: to `Cn1nc(C(F)F)nc1C(=O)N1CCc2[nH]cnc2[C@@H]1c1nc2c(F)ccc(F)c2o1` [Example 485, (R)-(4-(4,7-difluorobenzo[d]oxazol-2-yl)-6,7-dihydro-1H-imidazo[4,5-c]pyridin-5(4H)-yl)(3-(difluoromethyl)-1-methyl-1H-1,2,4-triazol-5-yl)methanone] belongs 1 to 5 µM.
In the case of `O=C(CCc1cncs1)N1CCc2[nH]cnc2[C@H]1c1nc2c(F)cccc2o1` (single isomer, unassigned), under setting [1], the AC50 was 1 to 5 µM.
Still for that read-out and setting: to `O=C(c1cnn(-c2ccccn2)c1Cl)N1CCc2[nH]cnc2C1c1nc2cc(F)ccc2o1` (stereo not shown) belongs at least 5 µM.
`CC(C)(C)c1nc(C(F)F)c(C(=O)N2CCc3[nH]cnc3[C@@H]2c2nc3cc(F)ccc3o2)o1` [Example 754, (R)-(2-(tert-butyl)-4-(difluoromethyl)oxazol-5-yl)(4-(5-fluorobenzo[d]oxazol-2-yl)-6,7-dihydro-1H-imidazo[4,5-c]pyridin-5(4H)-yl)methanone]: the half-maximal activity concentration (AC50) (A375 R408W cells) lay in the range of 1 to 5 µM.
Take `O=C(c1nccs1)N1CCc2[nH]cnc2C1c1nc2ccc(Br)cc2o1` (stereo not shown): under setting [1], the AC50 fell in the range of 1 to 5 µM.
With `CC(C)(O)c1cc(C(=O)N2CCc3[nH]cnc3C2c2nc3ccc(F)cc3o2)on1` (stereo not shown), under setting [1], the AC50 was in the range of 1 to 5 µM.
